In data set [1] the test system is Human umbilical vein endothelial cells (HUVEC). The experiment in a line: MTT cytotoxicity and cell viability assay. Format: cell-based. The conditions noted are these: 72 h; for cell viability (MTT), significance relative to untreated control (1% FBS): p<0.01. As for the experimental part:
For in vitro cell culture tests, the peptide (previously dissolved in water and stored at −20° C.) was resuspended, at the desired concentration, in culture medium supplemented with fetal bovine serum (FBS). The concentration of FBS was selected depending on the requirements of each experiment.
The MTT method was used (Mosmann, T., Rapid colorimetric assay for cellular growth and survival: application to proliferation and cytotoxicity assays. J Immunol Methods, 1983. 65(1-2): p. 55-63). The viability test was performed in culture plates of 96 wells. […] After 72 h, the supernatant was discarded and the cells washed twice with phosphate buffered saline (PBS) at pH 7.4 and incubated at 37° C. for 3 h with 100 μl of 0.5 mg/ml MTT reagent (3-(4,5-dimethylthiazol-2-yl)-2,5-diphenyl tetrazolium bromide) in PBS. The supernatant was removed and the reaction was stopped with 100 μl of dimethyl sulfoxide (DMSO). Absorbance values were determined at 540 nm using a SpectraMax™ 190 automatic plate reader (Molecular Devices, USA).
The results were expressed as a percentage of cell viability relative to the untreated control at time zero (initial number of cells). Absorbance values were determined at 540 nm. The results were expressed as the average ±standard error of the mean (SEM) of 5 independent experiments. Statistical significance between the groups were determined by a one-way ANOVA test (*: p<0.05, **: p<0.01).

Data set [2] has as its system human dermal fibroblasts (FN1). The experiment in a line: Cell proliferation by CFDA-SE staining, flow cytometry. Format: cell-based. As to conditions: FN1 cells; for proliferation / cytoprotection (CFDA-SE staining): 1% FBS, 48 hours; for proliferation rate (CFDA-SE staining): 10% FBS, 48 h, p<0.001 versus control 10% FBS. As for the experimental part:
Quantitative assessment of cell proliferation was performed by staining cells with carboxyfluorescein succinimidyl ester (CFDA-SE), as described previously (Asquith, B., et al., Quantifying lymphocyte kinetics in vivo using carboxyfluorescein diacetate succinimidyl ester (CFSE). Proc Biol Sci, 2006. 273(1590): p. 1165-71; Lyons, A. B., Analysing cell division in vivo and in vitro using flow cytometric measurement of CFSE dye dilution. J Immunol Methods, 2000. 243(1-2): p. 147-54). CFDA-SE is a lipophilic dye which reacts with amino groups of peptides and proteins, forming a stable amide linkage, which can be detected using flow cytometry analysis. The CFDA-SE passively diffuses into cells. It is colorless and nonfluorescent until its acetate groups are cleaved by intracellular esterases to produce a highly fluorescent, amine reactive succinimidyl ester of carboxyfluorescein, which is well conserved and can be fixed with aldehyde fixatives. The excess reagent and unconjugated by products passively diffuse into the extracellular environment where they can be washed away. When parent cells divide, CFDA-SE dye is equally distributed to the daughter cells, which therefore have half of the fluorescence intensity of the parents. The reduction of fluorescence intensity of cell generations in cell proliferation is easily detected by flow cytometry.
For the assay, human dermal fibroblasts (FN1) cells were seeded in six-well plates (1×10^4 cells/well), incubated with […] CFDA—SE diluted in PBS, and cultured at 37° C. with 5% CO2 for 15 minutes protected from light, according to the manufacturer's instructions (Vybrant® CFDA SE Cell Tracer Kit, MolecularProbes). […] Subsequently, the cells were trypsinized and the cell buttons resuspended in 300 μl of FACS buffer with 2% paraformaldehyde and kept in the refrigerator until the moment of reading. Cell proliferation by CFDA—SE was estimated by the reduction in cell fluorescence. Fluorescence was determined for excitation at λ=492 nm and for emission at λ=517 nm (10000 events per sample) in a FACScalibur™ flow cytometry system (Becton and Dickson) using the CellQuest™ software. The parameters FSC (size) and SSC (granularity/complexity) was detected in linear scale and FL1-H on a logarithmic scale. Proliferation was analyzed using the program ModFit LT™ 2.0 (Verity Software House, Topsham, Me., USA). The figures are expressed as the average ±standard error of the mean (SEM) of 5 independent experiments (Student's t test).
On the technique in general: Flow cytometry measures light scatter and fluorescence of single cells or particles in a stream.

The test system of data set [3] is FN1 fibroblasts. The experiment in a line: Cell cycle phases by propidium iodide flow cytometry. As to conditions: 48 hours. Format: cell-based, human. As for the experimental part: The distribution of cells in the various cell cycle phases was determined by the content or amount of propidium iodide (PI) incorporated into the cell, measured by flow cytometry (Vindelov, L. L., I. J. Christensen, and N. I. Nissen, Standardization of high-resolution flow cytometric DNA analysis by the simultaneous use of chicken and trout red blood cells as internal reference standards. Cytometry, 1983. 3(5): p. 328-31). […] After treatment, the FN1 cell suspensions were resuspended in 70% ethanol and kept in a freezer at −20° C. for subsequent analysis of cell cycle phases. At the time of the experiment, cells were incubated in a PBS solution: 950 μl of PBS, 40 μl of PI (1 mg/ml) and 10 μl of Rnase: (10 mg/ml), to assess the quantity and integrity of DNA in the cell cycle phases. The results obtained by the acquisition program CellQuest™ acquired on a FACScalibur™ flow cytometer (Becton and Dickson, USA) were analyzed by FACS ModFit™ 2.8. The DNA content was expressed as mean percentage±standard error of the mean (SEM) of 3 independent experiments (Student's t test) of cells distributed in the different cell cycle phases: apoptotic cells, G0/G1, S and G2/M.

For a further data set, the system named is FN1 cells. The experiment in a line: Detection of intracellular reactive oxygen and nitrogen species (ROS). Format: cell-based, human. The conditions noted are these: for ROS production: serum-deprived (1% FBS). As for the experimental part:
The detection of reactive species was performed by the ROS Detection Kit (Enzo Life Sciences, Plymouth Meeting, Pa.) according to the manufacturer's instructions. This assay allows detecting ROS production in living cells by flow cytometry. The dye detection reagent reacts with hydrogen peroxide, peroxynitrite and hydroxyl radicals. FN1 cells at a density of 10^6/ml were plated and cultured in 6-well plates for 24 hours in incubator containing 5% CO2 at 37° C. […] Then, the cells were washed with wash buffer supplied by the manufacturer and centrifuged at 1500 rpm for 10 minutes. The supernatant was discarded and the cell button resuspended in 200 μl of PBS. The fluorescence was determined at λ=485 nm for excitation and emission λ=590 nm for a FACScalibur™ flow cytometry system using CellQuest™ software with the acquisition of 10,000 events having as parameters FSC (size) and SSC (granularity/complexity) linear scale and FL1/FL2 on logarithmic scales. The results were expressed as the mean±SEM (standard error of the mean) of 3 independent experiments.

In data set [4] the test system is FN1 fibroblasts. The experiment in a line: Ultrastructure of fibroblasts by transmission electron microscopy (TEM). Format: cell-based, human. As to conditions: 1% FBS, 50 ng/ml, 48 hours. From the text:
Severe morphological changes in normal fibroblasts are observed after serum deprivation conditions consistent with those of apoptotic cell death. […] TEM provides ultra-structural evidence about the nature of cell death (Kulkarni, G. V. and C. A. McCulloch, Serum deprivation induces apoptotic cell death in a subset of Balb/c 3T3 fibroblasts. J Cell Sci, 1994. 107 (Pt 5): p. 1169-79).
Cells were washed 3 times with PBS and gently collected in a tube with the help of a cell scraper. The cell suspension was centrifuged, and the cell button re-suspended in a solution of 3% glutaraldehyde and 2% paraformaldehyde diluted in sodium cacodylate. The cell button was post-fixed in 1% solution of osmium tetroxide for 1 hour, washed with PBS and distilled water and dehydrated in a graded ethanol series (30, 60, 70, 80 and 100%). Finally, the epoxy resin was mixed with warm ethanol (1:1) for infiltration, and only the resin was used for the incorporation of cells (60° C./48 h). Ultrathin sections (50 nm) were cut with an ultramicrotome (Leica Ultracut™ UCT) and stained with 5% uranyl acetate in 50% ethanol and 2% aqueous solution of citrate. The obtained sections were photographed using a TEM (LEO™ 906E, Zeiss, […]) at an accelerating voltage of 80 kV.

The next data set deals with collagen I. The experiment in a line: Extracellular matrix molecules by fluorescence microscopy. In kind it is cell-based, human. As to conditions: FN1 cells, 50 ng/ml, 48 h, 10% FBS. An excerpt: (§1) Previous studies have reported the importance of extracellular matrix components for maintaining cell survival of serum-deprived cells and that survival is enhanced by cell-cell contact. To confirm the synthesis of extracellular matrix molecules, fibroblast cultures were marked with antibodies specific for laminin and fibronectin following treatment with the synthetic peptide.
(§2) After treatment, the medium was removed and cells were washed with PBS and fixed with 3.7% paraformaldehyde for 10 minutes. Triton X-100 (0.1%) was added for 15 minutes for permeabilization of the plasma membrane, followed by addition of the primary antibody and incubation for 12 hours (overnight) in the dark at 4° C. The cells were washed with PBS, the secondary antibody was added and the cells were kept for 1 hour at room temperature in the dark. Antibodies were diluted according to the manufacturer's recommendation. After washing, the […] cell nuclei were stained with 4′,6-diamidino-2-phenylindole (DAPI) reagent (Invitrogen) and slides were mounted on coverslips containing 4 μl of antifade solution (Vectashield™, Vector-H1000, that serves to preserve fluorescence). Cells were viewed with an Axio™ Imager A1 fluorescence microscope (Carl Zeiss, Germany).
(§3) Primary antibodies in blocking buffer: 10% FBS, 1% BSA in TBS (0.1% Triton X-100 in PBS):
Mouse monoclonal to Collagen type I [Col-I] (abcam): 1/1000

A further data set relates to fibronectin. The description is as above. In kind it is cell-based, human. The conditions noted are these: FN1 cells, 50 ng/ml, 48 h, 10% FBS.
Source text: as §1, §2, §3
Rabbit polyclonal to Fibronectin (abcam): 2 μg/ml

For a further data set, the system named is laminin. Described as above. In kind it is cell-based, human. As to conditions: FN1 cells, 50 ng/ml, 48 h, 10% FBS.
Source text: as §1, §2, §3
Rabbit polyclonal to Laminin alpha 4 (abcam): 1/500

A further data set deals with vitronectin. Described as above. As to conditions: FN1 cells, 50 ng/ml, 48 h, 10% FBS. In kind it is cell-based, human.
Source text: as §1, §2, §3
Mouse monoclonal [VN58-1] […]

For data set [5] the following is noted: 125 μg/ml, 25° C., sodium phosphate buffer, pH 6.0 to 8.0, 24 hours.
Method: Measurement of the structural integrity of the peptide was carried out using sodium phosphate buffer at various pH values (6.0, 6.4, 6.8, 7.0, 7.4, 8.0) containing 125 μg/ml of the peptide. Peptide solutions were incubated overnight at room temperature (25° C.). Analyses of circular dichroism (CD) were performed on a J-810 spectropolarimeter controlled by Spectra Manager™ software (JASCO), using cuvettes with optical path length of 0.1 cm (Biotechnology Center—Instituto Butantan). The CD spectra were recorded in the range 183-260 nm every 0.1 nm. The spectrum of each sample was subtracted from the spectrum of the buffer without peptide.
The mark [6] stands for this setting: 25 ng/ml, p<0.05 versus control 1% FBS.
Setting [7] is: 50 ng/ml, p<0.001 versus control 1% FBS.

Where no end group is shown, it is not given here.

The source of these data is patent US9556225B2, “Peptide stimulator of cell survival and proliferation” (União Química Farmacêutica Nacional S/A, priority 2014, dated 2017).

In the case of DYFKDGKDVN [LONO-Q], the “cellular proliferation (MTT), significance” value in data set [1] (10% FBS, 50 ng/ml, p<0.05) was “statistically significant results”. Moreover, the “cell viability (MTT)” value in data set [1] (HUVECs, 1% FBS (serum deprivation), dose response) is given as “stimulated cell viability in a dose-dependent manner”. Moreover, the “cell viability (MTT), significance relative to untreated control (1% FBS)” value in data set [1] (HUVECs, 25 ng/ml) was “statistically significant results”; in data set [1] (HUVECs, 50 ng/ml), “statistically significant results”. The “cellular proliferation (MTT)” value in data set [1] (normal conditions (10% FBS), dose response) was “stimulated the cellular proliferation in a dose-dependent manner”. Besides, the “proliferation / cytoprotection (CFDA-SE staining)” value in data set [2] (setting [6]) and in data set [2] (setting [7]) was “significant cytoprotection” in each case. The “proliferation rate (CFDA-SE staining)” value in [2] (25 ng/ml) and in [2] (50 ng/ml) was “statistically significant increase in the proliferation rate” throughout. The “apoptotic cells (fragmented DNA)” value in the data set with FN1 fibroblasts [3] (1% FBS, 50 ng/ml, n=3, mean±SEM, p<0.01 vs. control 1% FBS) was 8.1±1.1%. Besides, in the data set on FN1 fibroblasts [3] (1% FBS, 50 ng/ml, n=3, mean±SEM, p<0.05 vs. control 1% FBS), the “cells in S phase of the cell cycle” value is recorded as 17.2±1.5%. Also, in the data set with FN1 fibroblasts [3] (1% FBS, 25 or 50 ng/ml), the “S phase of the cell cycle, dose dependence” value is given as “apparent dose-dependent increase of the S phase”. Besides, the “cells in G2/M” value with FN1 fibroblasts [3] (10% FBS, 50 ng/ml, n=3, mean±SEM, p<0.05 vs. control 10% FBS) worked out at 18.4±2.5%. The ROS generation entry in the data set with FN1 cells (normal cell growth (10% FBS)) is “no statistically significant decrease in ROS generation”. For the same sequence, the ROS production result in the data set on FN1 cells (setting [6]) and with FN1 cells (setting [7]) was “statistically significant decrease of ROS production” in each case. The “morphological changes induced by serum deprivation (TEM)” value in the data set with FN1 fibroblasts [4] is “retards most of the effects observed in serum deprived cells”. Also, the “production of collagen I” value with collagen I is given as “increased amounts”. In addition, in the data set with fibronectin, the production of fibronectin result is “increased amounts”. The production of laminin result with laminin is listed as “increased amounts”. Further, the production of vitronectin entry in the data set with vitronectin is “increased amounts”. Further, the “Stability (circular dichroism)” value in data set [5] is “remains stable”.
